Results on two molecules are retold here after US8372878B2, “Aminoguanidines as melanocortin receptor ligands” (Anamar AB, priority 2006, dated 2013).

Experiment [1] addresses T1, MC5 (Homo sapiens, UniProt P33032). Nature of the experiment: Stimulation of cAMP, MC5. Type of experiment: cell-based. Here is the method: (§1) Test 3. cAMP The stimulation of cAMP was carried out essentially as described by Schiöth et al, Br J Pharmacol 1998; 124; 75-82.
The target in experiment [2] is T2, MC4 (Homo sapiens, UniProt P32245). Put plainly: Affinity for the MC4-receptors, binding assay with I125-NDP-αMSH as ligand. Particulars: read-out: Affinity for MC-receptors Ki MC4. The procedure:
(§2) Test 2. Affinity for the MC3-Receptors, the MC4-Receptors and the MC5-Receptors
(§3) The binding assays were carried out essentially as described by Szardenings et al, J Biol Chem 1997; 272; 27943-27948 and Schiöth et al, FEBS Lett 1997; 410; 223-228 using I^125-NDP-αMSH as ligand.

Experiment [3] deals with T3, MC3 (Homo sapiens, UniProt P41968). Put plainly: Affinity for the MC3-receptors, binding assay with I125-NDP-αMSH as ligand. Particulars: read-out: Affinity for MC-receptors Ki MC3. The procedure:
as §2, §3

Experiment [4] concerns the target T3, MC3. Nature of the experiment: Stimulation of cAMP, MC3. Type of experiment: cell-based. Here is the method:
as §1

In experiment [5] the target is T2, MC4. Nature of the experiment: Stimulation of cAMP, MC4. The class given is cell-based. The procedure: as §1
Experiment [6] concerns the target T1, MC5. Put plainly: Affinity for the MC5-receptors, binding assay with I125-NDP-αMSH as ligand. Particulars: read-out: Affinity for MC-receptors Ki MC5. Here is the method: as §2, §3
The next experiment has as its target MC1 (Homo sapiens, UniProt Q01726). Nature of the experiment: Stimulation of cAMP, MC1. Type of experiment: cell-based. Here is the method:
as §1

A further experiment has as its target MC1-Receptor (Mus musculus, UniProt Q01727). Put plainly: Affinity for the MC1-receptor, binding assay with I125-NDP-αMSH as ligand. As to conditions: read-out: Affinity for MC-receptors Ki MC1. Here is the method:
Test 1. Affinity for the MC1-Receptor
The binding assay was carried out essentially as described by Lunec et al, Melanoma Res 1992; 2; 5-12, using I^125-NDP-αMSH as ligand.

T1 sequence (P33032 whole entry): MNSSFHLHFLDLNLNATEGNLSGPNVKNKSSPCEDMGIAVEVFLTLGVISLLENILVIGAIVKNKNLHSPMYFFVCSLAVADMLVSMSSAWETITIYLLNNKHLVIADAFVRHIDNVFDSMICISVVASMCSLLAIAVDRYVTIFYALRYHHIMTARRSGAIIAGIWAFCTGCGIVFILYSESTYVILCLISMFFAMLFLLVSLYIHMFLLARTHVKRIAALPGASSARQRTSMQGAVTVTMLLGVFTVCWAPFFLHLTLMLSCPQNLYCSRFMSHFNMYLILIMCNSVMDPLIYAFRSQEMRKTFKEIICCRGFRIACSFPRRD
T3 sequence (P41968 whole entry): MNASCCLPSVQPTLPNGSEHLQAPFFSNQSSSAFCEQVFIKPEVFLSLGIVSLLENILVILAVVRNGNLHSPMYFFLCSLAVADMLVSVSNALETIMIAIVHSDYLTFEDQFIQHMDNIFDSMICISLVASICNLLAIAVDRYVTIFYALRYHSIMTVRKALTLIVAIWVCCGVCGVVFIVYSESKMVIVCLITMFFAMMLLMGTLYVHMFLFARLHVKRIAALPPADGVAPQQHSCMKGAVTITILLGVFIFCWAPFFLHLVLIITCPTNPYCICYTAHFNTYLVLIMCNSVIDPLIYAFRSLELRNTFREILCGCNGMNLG
T2 sequence (P32245 whole entry): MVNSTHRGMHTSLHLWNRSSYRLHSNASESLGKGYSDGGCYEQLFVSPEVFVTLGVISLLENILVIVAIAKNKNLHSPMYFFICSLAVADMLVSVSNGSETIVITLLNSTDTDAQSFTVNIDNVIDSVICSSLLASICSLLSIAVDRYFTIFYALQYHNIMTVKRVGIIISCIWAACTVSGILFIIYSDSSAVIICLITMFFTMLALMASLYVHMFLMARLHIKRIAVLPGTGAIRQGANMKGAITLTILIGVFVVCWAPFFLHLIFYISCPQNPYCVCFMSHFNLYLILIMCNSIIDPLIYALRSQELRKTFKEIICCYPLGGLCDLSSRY
Sequence of MC1 (Q01726 whole entry): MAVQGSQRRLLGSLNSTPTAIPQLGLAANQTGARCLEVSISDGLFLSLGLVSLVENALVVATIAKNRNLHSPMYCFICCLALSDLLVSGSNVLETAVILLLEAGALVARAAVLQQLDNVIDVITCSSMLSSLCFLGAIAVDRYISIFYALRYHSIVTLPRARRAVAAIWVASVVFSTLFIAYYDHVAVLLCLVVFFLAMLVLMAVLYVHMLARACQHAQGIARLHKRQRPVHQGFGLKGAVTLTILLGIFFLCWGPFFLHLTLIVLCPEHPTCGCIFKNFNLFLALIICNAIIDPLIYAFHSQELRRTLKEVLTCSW
Sequence of MC1-Receptor (Q01727 whole entry): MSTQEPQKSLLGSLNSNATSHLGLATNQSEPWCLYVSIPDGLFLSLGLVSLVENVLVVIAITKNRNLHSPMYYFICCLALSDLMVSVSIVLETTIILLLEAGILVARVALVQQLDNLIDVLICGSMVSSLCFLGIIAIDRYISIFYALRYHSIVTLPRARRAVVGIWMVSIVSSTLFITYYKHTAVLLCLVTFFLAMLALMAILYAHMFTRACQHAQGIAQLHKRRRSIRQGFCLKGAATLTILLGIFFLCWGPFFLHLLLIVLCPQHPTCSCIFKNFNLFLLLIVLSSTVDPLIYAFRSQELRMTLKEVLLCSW

`CSc1c(Cl)cccc1C=NNC(=N)N.Cl` [Compound 1:1, N-(2-Methylthio-3-chlorobenzylideneamino)guanidine hydrochloride]: the “Influence on cAMP MC5c” value on MC5 [1] is on record as 1. Also, the Ki at MC4 [2] came to 0.6 µM; at MC3 [3], 19.7 µM; on MC5 [6] it was 19.7 µM; at MC1-Receptor, 0.7 µM. Also, the “Influence on cAMP MC3c” value at MC3 [4] is listed as 2. Besides, at MC4 [5], the “Influence on cAMP MC4c” value amounted to 13. Further, the “Influence on cAMP MC1c” value at MC1 is on record as 1.

Turning to `CCOC(=O)c1cccc(C=NNC(=N)N)c1Cl.O=C(O)C(F)(F)F` [1:3, N-(2-Chloro-(3-ethoxycarbonyl)-benzylideneamino)guanidine trifluoroacetate], at MC5 [1], the “Influence on cAMP MC5c” value stood at 0. Besides, on MC3 [4], the “Influence on cAMP MC3c” value amounted to 0. The “Influence on cAMP MC4c” value on MC4 [5] was found to be 7. Moreover, the “Influence on cAMP MC1c” value on MC1 is on record as 0. At MC1-Receptor, the Ki is 3.4 µM.
